Source: patent EP0147498A2, “Method of testing chemical and biological substances” (Thorn, Werner Prof. Dr., priority 1983, dated 1985)

Experiments:
Magenschleimhaut = assay: Plasma polyp (PP) formation at the gastric mucosa after application by stomach tube, PP isolated by reverse centrifugation and counted by phase-contrast microscopy; settings: for Anzahl der PP pro 1 g Rattenmagen: stomach tube, about 20-30 min
Source text: Die PP-Bildung, deren Konzentration und Auszählung wurden an Gruppen zu je 5 Ratten von 140 bis 160 g Körpergewicht, im Mittel 150 g, kontrolliert und die Anzahl der PP auf 1 g Magen (Leergewicht) umgerechnet. Die Tiere waren vor dem Versuch 15 bis 17 Stunden nahrungsfrei. Die Applikation der Testsubstanzen, die gelöst sind in Krebs-Ringer-Lösung (KRL) oder Aq.bidest, erfolgte per Schlundsonde. Die verabreichte Lösung besitzt einen pH-Wert von 7,0 bis 7,2. Die Verweildauer des applizierten Volumens hängt zum Teil ab von den Eigenschaften der Testsubstanz. […] Die Verweildauer der Testsubstanz bis zur Entnahme der Mägen einer Gruppe betrug etwa 20 bis maximal 30 min. Dabei werden dosisabhängig die abgeschnürten PP erfaßt.
Es wurden 5 Tierversuche - zu einer Serie zusammengefaßt - durchgeführt innerhalb von 40 min, wobei die Mägen wie folgt aufgearbeitet wurden: • 1. Jeder Ratte werden in nicht narkotisiertem Zustand 4,5 ml der Lösung bestehend aus der in KRL oder Aq.bidest gelösten Testsubstanz mittels einer Schlundsonde appliziert. • 2. Nach einer Einwirkzeit von etwa 15 bis 20 min werden 40 bis 45 mg Nembutal intraperitoneal appliziert, 2 bis 3 min zugewartet und dann der Magen während eines Zeitraums von etwa 5 min entnommen. • 3. Der Magen wird aufgeschnitten, der Inhalt aufgefangen, auf PP geprüft und der leere Magen in. oxygenierte KRL-Lösung mit Glucosezusatz geworfen. • 4. Alle 5 Mägen werden in der glucosehaltigen KRL dreimal hochtourig homogenisiert, das Homogenisat über ein feinmaschiges Sieb gegossen, und das Sieb wird mit 20 ml KRL nachgespült, so daß ein Endvolumen von 80 ml vorliegt. • 5. Die Volumina aus den Stufen 3 und 4 werden mit 8 ml eine: 7 %iger Lösung aus einem Copolymeren der Saccharose mit Epichlorhydrin unterschichtet und bei 2000 Umdrehungen/min im Schwingbecherrotor für 20 min zentrifugiert. • 6. Die die PP enthaltende Schicht wird erneut 60 min im Festwinkelrotor bei 13000 Umdrehungen/min (Ultrazentrifuge) zentrifugiert, der Uberstand wird verworfen und das Sediment weiterverarbeitet. • 7 Das Sediment wird einer umgekehrten Zentrifugation in der Ultrazentrifuge bei 25000 U/min für 45 min unterzogen. • 8. Die in einer Bohrung aufgefangenen PP aus der umgekehrten Zentrifugation werden in 50 µl KRL aufgenommen. • 9. Zur Auszählung der PP aus Stufe 8 bei einem Ansatz von jeweils 3 µl dient ein Phasenkontrastmikroskop. Es werden 10 Felder mit dem Rasterobjektiv ausgezählt, zum Teil unter fotografischer Kontrolle. Die in der nachfolgenden Tabelle aufgeführten Werte stammen jeweils aus drei Ansätzen; einer Probe von 5 Rattenmägen oder aus der Auswertung von 30 Feldern. • 10. Mittelwert pro Feld x Umrechnungsfaktor pro Feld x 16,6 ergibt die Zahl der PP pro Gramm Magen. Der Umrechnungsfaktor für die Feldfläche von 18 x 18 mm^2 ist 24,652.
Es wurden die in der folgenden Tabelle angegebenen Substanzen injiziert und dann die Anzahl der PP aus einer Serie von 5 Tieren als Mittelwert pro Gramm Rattenmagen oder gemittelt aus mehreren Serien mit jeweils 5 Tieren ermittelt.

[1] = tested on: Syncytiotrophoblasten der Placenta; settings: cited from earlier work; for PP-Bildung in Meerschweinchenplacenten: animal experiments, Archiv für Gynäkologie 216 (1974) and 221 (1976); for Auftreten von Plasmapolypen am Syncytiotrophoblasten der Placenta: poisoning of pregnant guinea pigs, within a few minutes, already known

Structure (SMILES): CC(=O)C(=O)O [Na-Pyruvat, Natriumpyruvat]
- Anzahl der PP pro 1 g Rattenmagen (Magenschleimhaut; 0,5 mmol Na-Pyruvat in 4,5 ml Aq.bidest, 1 series of 5 rats): etwa 220.000 PP pro 1 g Rattenmagen
- PP-Zahlen gegenüber der Blindprobe (4,5 ml Aq.bidest) (Magenschleimhaut; Na-Pyruvat alone, compared with the blank): keine Erhöhung

Structure (SMILES): CC(O)C(=O)O (centres unmarked) [Na-Lactat]
- Anzahl der PP pro 1 g Rattenmagen (Magenschleimhaut; 2,0 mmol Na-Lactat in 4,5 ml Aq.bidest, mean of 4 series of 5 rats): 344.000 PP pro 1 g Rattenmagen

Structure (SMILES): [F-].[Na+] [Natriumfluorid]
- PP-Bildung in Meerschweinchenplacenten [1]: verstärkte, reproduzierbare Bildung und Abschnürung von Zellprotrusionen
- Auftreten von Plasmapolypen am Syncytiotrophoblasten der Placenta [1]: in großer Zahl

Structure (SMILES): O=C(O)O [NaHCO3]
- Anzahl der PP pro 1 g Rattenmagen (Magenschleimhaut; 1,33 mmol NaHCO3 in 4,5 ml Aq.bidest, mean of 4 series of 5 rats): 333.700 PP pro 1 g Rattenmagen

Structure (SMILES): CC(=O)Oc1ccccc1C(=O)O [ASS, Acetylsalicylsäure]
- Anzahl der PP pro 1 g Rattenmagen (Magenschleimhaut; 0,5 mmol ASS in 4,5 ml Aq.bidest, mean of 3 series of 5 rats): 728.000 PP pro 1 g Rattenmagen
- Anzahl der PP pro 1 g Rattenmagen (Magenschleimhaut; 0,25 mmol ASS in 4,5 ml Aq.bidest, mean of 3 series of 5 rats): 610.700 PP pro 1 g Rattenmagen

Structure (SMILES): O=C(O)CI [Monojodacetat]
- PP-Bildung in Meerschweinchenplacenten [1]: verstärkte, reproduzierbare Bildung und Abschnürung von Zellprotrusionen
- Auftreten von Plasmapolypen am Syncytiotrophoblasten der Placenta [1]: in großer Zahl

Structure (SMILES): O=[N+]([O-])c1ccc(O)c([N+](=O)[O-])c1 [2.4-Dinitrophenol]
- PP-Bildung in Meerschweinchenplacenten [1]: keiner vermehrten PP-Bildung
